Legend:
Type in all cases: in vivo
[1] = test system: barnyardgrass (Echinochloa crus-galli); experiment: Test A preemergence soil spray, visual injury rating 0-100; conditions: 10 days
Procedure, shortened: (§1)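 Plants were grown in a loam soil-sand blend and treated with test chemical in a non-phytotoxic solvent mixture containing surfactant, either sprayed on soil preemergence or applied postemergence to 2-10 cm plants. After 10 days in a greenhouse, injury was scored visually against untreated controls, 0 meaning no effect and 100 complete control.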

[2] = test system: blackgrass (Alopecurus myosuroides); experiment: as above; conditions: 10 days
Procedure, shortened: as §1

corn (Zea mays) [3] = experiment: as above; conditions: 10 days
Procedure, shortened: as §1

[4] = test system: green foxtail (Setaria viridis); experiment: as above; conditions: 10 days
Procedure, shortened: as §1

kochia (Bassia scoparia) [5] = experiment: as above; conditions: 10 days
Procedure, shortened: as §1

[6] = test system: oat, wild (wild oat, Avena fatua); experiment: as above; conditions: 10 days
Procedure, shortened: as §1

[7] = test system: palmer (palmer amaranth, palmer pigweed, Amaranthus palmeri); experiment: as above; conditions: 10 days
Procedure, shortened: as §1

[8] = test system: ragweed (common ragweed, Ambrosia artemisiifolia); experiment: as above; conditions: 10 days
Procedure, shortened: as §1

[9] = test system: ryegrass, Italian (italian ryegrass, Lolium multiflorum); experiment: as above; conditions: 10 days
Procedure, shortened: as §1

soybean (Glycine max) [10] = experiment: as above; conditions: 10 days
Procedure, shortened: as §1

[11] = test system: wheat (Triticum aestivum); experiment: as above; conditions: 10 days
Procedure, shortened: as §1

[12] = test system: barnyardgrass (Echinochloa crus-galli); experiment: Test A postemergence application, visual injury rating 0-100
Procedure, shortened: as §1

[13] = test system: blackgrass (Alopecurus myosuroides); experiment: as above
Procedure, shortened: as §1

corn (Zea mays) [14] = experiment: as above
Procedure, shortened: as §1

[15] = test system: green foxtail (Setaria viridis); experiment: as above
Procedure, shortened: as §1

[16] = test system: horseweed (Erigeron canadensis); experiment: as above
Procedure, shortened: as §1

kochia (Bassia scoparia) [17] = experiment: as above
Procedure, shortened: as §1

[18] = test system: oat, wild (wild oat, Avena fatua); experiment: as above
Procedure, shortened: as §1

[19] = test system: palmer (palmer amaranth, palmer pigweed, Amaranthus palmeri); experiment: as above
Procedure, shortened: as §1

[20] = test system: ragweed (common ragweed, Ambrosia artemisiifolia); experiment: as above
Procedure, shortened: as §1

[21] = test system: ryegrass, Italian (italian ryegrass, Lolium multiflorum); experiment: as above
Procedure, shortened: as §1

soybean (Glycine max) [22] = experiment: as above
Procedure, shortened: as §1

[23] = test system: wheat (Triticum aestivum); experiment: as above
Procedure, shortened: as §1

[24] = test system: barnyardgrass (Echinochloa crusgalli); experiment: Test B flooded paddy test, visual plant response rating 0-100; conditions: 250 g ai/ha, Flood, applied to paddy water, evaluated after 13 days
Procedure, shortened: (§2)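 Paddy-water application: test compounds went directly into water flooded 3 cm above the soil surface, with plants at 2 leaves. After a 13-day greenhouse period, responses were judged by eye relative to controls; a dash marks an untested entry.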

[25] = test system: ducksalad (Heteranthera limosa); experiment: as above; conditions: 250 g ai/ha, Flood, applied to paddy water, evaluated after 13 days
Procedure, shortened: as §2

rice (Oryza sativa) = experiment: as above; conditions: 250 g ai/ha, Flood, applied to paddy water, evaluated after 13 days
Procedure, shortened: as §2

[26] = test system: sedge, umbrella (small-flower umbrella sedge, Cyperus difformis); experiment: as above; conditions: 250 g ai/ha, Flood, applied to paddy water, evaluated after 13 days
Procedure, shortened: as §2

[27] = 62 g ai/ha, 0 = no effect, 100 = complete control
[28] = 62 g ai/ha, postemergence, 10 days, 0 = no effect, 100 = complete control
[29] = Postemergence, 16 g ai/ha, greenhouse 10 days, 0 no effect, 100 complete control

Structure (SMILES): CC1(C(=O)NC2CC=C(C(=O)OCC3CC3)C2)CN(c2cc(F)cc(Cl)c2)C(=O)O1 (centres unmarked) [Compound 144]
- Barnyardgrass plant response rating ([1]; 16 g ai/ha, 0 to 100 scale): 0
- Barnyardgrass plant response rating (0-100) [1, 27]: 100
- Blackgrass plant response rating ([2]; 16 g ai/ha, 0 to 100 scale): 0
- Blackgrass plant response rating (0-100) [2, 27]: 0
- Corn plant response rating (corn (Zea mays) [3]; 16 g ai/ha, 0 to 100 scale): 0
- Corn plant response rating (0-100) (corn (Zea mays) [3]; [27]): 50
- Foxtail, Green plant response rating ([4]; 16 g ai/ha, 0 to 100 scale): 0
- Foxtail, Green plant response rating (0-100) [4, 27]: 90
- Kochia plant response rating (kochia (Bassia scoparia) [5]; 16 g ai/ha, 0 to 100 scale): 0
- Kochia plant response rating (0-100) (kochia (Bassia scoparia) [5]; [27]): 40
- Oat, Wild plant response rating ([6]; 16 g ai/ha, 0 to 100 scale): 0
- Oat, Wild plant response rating (0-100) [6, 27]: 20
- Pigweed, Palmer plant response rating ([7]; 16 g ai/ha, 0 to 100 scale): 50
- Pigweed, Palmer plant response rating (0-100) [7, 27]: 80
- Ragweed plant response rating ([8]; 16 g ai/ha, 0 to 100 scale): 0
- Ragweed plant response rating (0-100) [8, 27]: 0
- Ryegrass, Italian plant response rating ([9]; 16 g ai/ha, 0 to 100 scale): 10
- Ryegrass, Italian plant response rating (0-100) [9, 27]: 60
- Soybean plant response rating (soybean (Glycine max) [10]; 16 g ai/ha, 0 to 100 scale): 0
- Soybean plant response rating (0-100) (soybean (Glycine max) [10]; [27]): 10
- Wheat plant response rating ([11]; 16 g ai/ha, 0 to 100 scale): 0
- Wheat plant response rating (0-100) [11, 27]: 70
- Barnyardgrass plant response rating (0-100) [12, 28]: 100
- Barnyardgrass plant response rating (0 to 100 scale) [12, 29]: 90
- Blackgrass plant response rating (0-100) [13, 28]: 100
- Blackgrass plant response rating (0 to 100 scale) [13, 29]: 70
- Corn plant response rating (0-100) (corn (Zea mays) [14]; [28]): 100
- Corn plant response rating (0 to 100 scale) (corn (Zea mays) [14]; [29]): 100
- Foxtail, Green plant response rating (0-100) [15, 28]: 90
- Foxtail, Green plant response rating (0 to 100 scale) [15, 29]: 90
- Horseweed plant response rating (0-100) [16, 28]: 80
- Horseweed plant response rating (0 to 100 scale) [16, 29]: 50
- Kochia plant response rating (0-100) (kochia (Bassia scoparia) [17]; [28]): 80
- Kochia plant response rating (0 to 100 scale) (kochia (Bassia scoparia) [17]; [29]): 80
- Oat, Wild plant response rating (0-100) [18, 28]: 40
- Oat, Wild plant response rating (0 to 100 scale) [18, 29]: 20
- Pigweed, Palmer plant response rating (0-100) [19, 28]: 90
- Pigweed, Palmer plant response rating (0 to 100 scale) [19, 29]: 70
- Ragweed plant response rating (0-100) [20, 28]: 50
- Ragweed plant response rating (0 to 100 scale) [20, 29]: 20
- Ryegrass, Italian plant response rating (0-100) [21, 28]: 90
- Ryegrass, Italian plant response rating (0 to 100 scale) [21, 29]: 60
- Soybean plant response rating (0-100) (soybean (Glycine max) [22]; [28]): 80
- Soybean plant response rating (0 to 100 scale) (soybean (Glycine max) [22]; [29]): 80
- Wheat plant response rating (0-100) [23, 28]: 90
- Wheat plant response rating (0 to 100 scale) [23, 29]: 60
- Plant response rating, Barnyardgrass (0 to 100 scale, 0 is no effect and 100 is complete control) [24]: 95
- Plant response rating, Ducksalad (0 to 100 scale, 0 is no effect and 100 is complete control) [25]: 80
- Plant response rating, Rice (0 to 100 scale, 0 is no effect and 100 is complete control) (rice (Oryza sativa)): 50
- Plant response rating, Sedge, Umbrella (0 to 100 scale, 0 is no effect and 100 is complete control) [26]: 100
